The EC50 is the concentration at which the effect is half-maximal.

Common to all, as to experiment: transactivation assay (GAL4 chimeric receptor, luciferase) in CV-1 cells
Common to all, as to assay type: cell-based

Assay [1] concerns the target T1, Mouse PPAR-γ (Mus musculus, UniProt P37238).
T1 construct: expressed in transfected cells; host or cells: CV-1 (CCL-70, ATCC)
T1 sequence (P37238 238-503 limits assumed): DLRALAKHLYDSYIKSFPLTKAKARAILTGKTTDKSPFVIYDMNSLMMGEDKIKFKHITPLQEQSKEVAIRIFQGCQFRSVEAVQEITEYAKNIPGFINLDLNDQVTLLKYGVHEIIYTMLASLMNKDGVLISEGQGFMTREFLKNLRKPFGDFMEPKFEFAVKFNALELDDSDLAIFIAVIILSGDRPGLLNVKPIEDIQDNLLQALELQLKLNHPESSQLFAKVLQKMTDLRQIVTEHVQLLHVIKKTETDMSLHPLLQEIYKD
As to conditions: for Emax: CV-1, Relative Response % to maximum effects of the positive control drug, read-out: Max % Mouse PPAR-γ; for EC50: CV-1 cells, GAL4 chimeric receptor, 24 hours. The procedure:
(§1) Following induction of transient intracellular expression of PPAR-α and -γ, an ability of the inventive compounds to induce transactivation of PPARs via activation of each PPAR was evaluated as an efficacy of the compound (transactivation assay).
(§2) For this assay, the African green monkey kidney cell line CV-1 (CCL-70, ATCC) was used as a test cell line, and PPAR-α and -γ were murine- and human-derived PPARs. Samples used were compounds prepared in Examples 19, 21, 23, 25, 26, 27, 31, 33, 34, 36, 38, 40, 42, 43 and 50. As a positive control drug, 3-4-[2-(2-phenyl-4-methyl-1,3-oxazole)ethyloxy]phenyl-(2S)-[(1-methyl-3-oxo-3-phenyl)propenyl]aminopropionic acid was used that is a PPAR-α or -γ agonist which was once under development and whose clinical trials and studies were suspended at phase III. A chimeric receptor was adopted to circumvent the probable interference due to endogenous receptor activation (Jian-Shen Q. et al., Mol Cell Biol (1995) 15(3):1817-1825). The chimeric receptor was constructed as a fusion of a PPAR-α or -γ ligand-binding domain with a DNA-binding domain of GAL4 which is a yeast transactivator.
(§3) The CV-1 cells were transiently transfected with each of chimeric receptor-expressing DNA constructs and each of DNA constructs comprising 5 copies of the GAL4 DNA-binding domain and capable of inducing expression of firefly luciferase or Renilla luciferase using a Lipofectamine Plus reagent (Invitrogen, USA). After transfection for 3 hours, the culture media were replaced with DMEM containing the above samples and 10% fetal bovine serum. 24 hours later, the firefly luciferase activity and Renilla luciferase activity were continuously assayed while adding an equal amount of a dual luciferase assay reagent (Promega, USA) to the cell-containing media. The transfection efficiency was normalized against Renilla luciferase activity (Motomura W. et al., Int J Cancer (2004) 108(1):41-6). The PPAR-α and -γ activity was determined by calculating Relative Response % to maximum effects of the positive control drug, and conducting multiple dose evaluation of the inventive compounds to calculate EC50, which is the concentration of a drug which produces 50% activation relative to maximum effects of the inventive compounds, by nonlinear regression analysis.

For assay [2], the target named is T2, Human PPAR-α (Homo sapiens, UniProt Q07869).
T2 construct: expressed in transfected cells; host or cells: CV-1 (CCL-70, ATCC)
T2 sequence (Q07869 239-466 limits assumed): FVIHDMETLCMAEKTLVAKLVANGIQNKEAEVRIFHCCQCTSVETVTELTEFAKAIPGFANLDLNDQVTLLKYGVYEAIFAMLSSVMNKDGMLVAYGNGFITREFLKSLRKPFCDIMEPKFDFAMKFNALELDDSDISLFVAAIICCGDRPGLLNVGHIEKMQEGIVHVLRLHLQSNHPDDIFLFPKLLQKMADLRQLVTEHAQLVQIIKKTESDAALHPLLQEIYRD
As to conditions: for Emax: CV-1, Relative Response % to maximum effects of the positive control drug, read-out: Max % Human PPAR-α; for EC50: CV-1 cells, GAL4 chimeric receptor, 24 hours. As for the experimental part: as §1, §2, §3

Assay [3] deals with T3, Mouse PPAR-α (Mus musculus, UniProt P23204).
T3 construct: expressed in transfected cells; host or cells: CV-1 (CCL-70, ATCC)
T3 sequence (P23204 239-466 limits assumed): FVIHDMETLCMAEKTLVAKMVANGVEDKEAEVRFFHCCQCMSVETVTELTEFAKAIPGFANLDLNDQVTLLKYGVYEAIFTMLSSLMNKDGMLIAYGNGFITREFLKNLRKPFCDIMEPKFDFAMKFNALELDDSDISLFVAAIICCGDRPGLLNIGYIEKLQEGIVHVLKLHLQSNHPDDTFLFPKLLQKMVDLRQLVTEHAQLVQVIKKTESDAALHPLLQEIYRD
The settings on record: for Emax: CV-1, Relative Response % to maximum effects of the positive control drug, read-out: Max % Mouse PPAR-α; for EC50: CV-1 cells, GAL4 chimeric receptor, 24 hours. The procedure:
as §1, §2, §3

Assay [4] has as its target T4, Human PPAR-γ (Homo sapiens, UniProt P37231).
T4 construct: expressed in transfected cells; host or cells: CV-1 (CCL-70, ATCC)
T4 sequence (P37231 238-503 limits assumed): T1 sequence (P37238 238-503 limits assumed) with N93S, I98V, N146S, V226L, H245Q
The settings on record: for Emax: CV-1, Relative Response % to maximum effects of the positive control drug, read-out: Max % Human PPAR-γ; for EC50: CV-1 cells, GAL4 chimeric receptor, 24 hours. The procedure:
as §1, §2, §3

Substitutions are numbered along the chain they refer to.

With `CCO[C@@H](Cc1ccc(OCc2sc(-c3ccc(-c4csnn4)cc3)cc2C)cc1)C(=O)O` [Example 24, (S)-3-(4-((5-(4-(1,2,3-thiadiazol-4-yl)phenyl)-3-methylthiophen-2-yl)methoxy)phenyl)-2-ethoxypropionic acid], the Emax in assay [1] was found to be 38%; in assay [2], 19%; in assay [3], 23%; in assay [4], 45%. Besides, the EC50 was determined as 84 nM in assay [1], 1400 nM in assay [2], 4930 nM in assay [3] and 32 nM in assay [4].
As for `CCO[C@@H](Cc1ccc(OCc2sc(-c3ccc(-c4cc(COC)no4)cc3)cc2C)cc1)C(=O)O` [Example 40, (S)-2-ethoxy-3-(4-((5-(4-(3-(methoxymethyl)isoxazol-5-yl)phenyl)-3-methylthiophen-2-yl)methoxy)phenyl)propionic acid], the Emax turned out to be 30% in assay [1], 7% in assay [2], 5% in assay [3] and 31% in assay [4]. Also, the EC50 in assay [1] amounted to 109 nM; in assay [4], 19 nM.
Take `CCO[C@@H](Cc1ccc(OCc2sc(-c3ccc(-c4nnn(C)n4)cc3)cc2C)cc1)C(=O)O` [Example 29, (S)-2-ethoxy-3-(4-((3-methyl-5-(4-(2-methyl-2H-tetrazol-5-yl)phenyl)thiophen-2-yl)methoxy)phenyl)propionic acid]: the Emax was found to be 48% in assay [1], 52% in assay [2], 31% in assay [3] and 66% in assay [4]. Also, the EC50 in assay [1] was determined as 118 nM; in assay [2], 1230 nM; in assay [3], 381 nM; in assay [4], 49 nM.
In the case of `CCO[C@@H](Cc1ccc(OCc2sc(-c3ccc(-c4nnn(C(C)C)n4)cc3)cc2C)cc1)C(=O)O` [Example 31, (S)-2-ethoxy-3-(4-((5-(4-(2-isopropyl-2H-tetrazol-5-yl)phenyl)-3-methylthiophen-2-yl)methoxy)phenyl)propionic acid], the Emax in assay [1] came out at 23%; in assay [2], 21%; in assay [3], 10%; in assay [4] it was 25%. In addition, the EC50 is 57 nM in assay [1], 478 nM in assay [2], 3090 nM in assay [3] and 100 nM in assay [4].
As to `CCO[C@@H](Cc1ccc(OCc2sc(-c3ccc(C(=O)N4CCOCC4)cc3)cc2C)cc1)C(=O)O` [Example 17, (S)-2-ethoxy-3-(4-((3-methyl-5-(4-(morpholino-4-carbonyl)phenyl)thiophen-2-yl)methoxy)phenyl)propionic acid], the Emax in assay [1] was 117%; in assay [2] it was 12%; in assay [3] it was 11%; in assay [4] it was 47%. Also, the figures for the EC50 in assay [1], in assay [2] and in assay [4] were 14500 nM, 3210 nM and 1270 nM, respectively.
For the molecule `CCO[C@@H](Cc1ccc(OCc2sc(-c3ccc(-c4cc(C)no4)cc3)nc2C)cc1)C(=O)O` [Example 47, (S)-2-ethoxy-3-(4-((4-methyl-2-(4-(3-methylisoxazol-5-yl)phenyl)thiazol-5-yl)methoxy)phenyl)propionic acid], the Emax in assay [1] came to 70%; in assay [2], 60%; in assay [3] it was 71%; in assay [4] it was 50%. The EC50 in assay [1] turned out to be 208 nM; in assay [2], 1410 nM; in assay [3], 560 nM; in assay [4] it was 82 nM.
Consider `CCO[C@@H](Cc1ccc(OCc2sc(-c3ccc(-c4cc(C(=O)NC)no4)cc3)cc2C)cc1)C(=O)O` [Example 38, (S)-2-ethoxy-3-(4-((3-methyl-5-(4-(3-(methylcarbamoyl)isoxazol-5-yl)phenyl)thiophen-2-yl)methoxy)phenyl)propionic acid], for which the Emax in assay [1] is 81%; in assay [2], 51%; in assay [3], 49%; in assay [4], 68%. Also, the EC50 came to 180 nM in assay [1], 5140 nM in assay [2], 5780 nM in assay [3] and 100 nM in assay [4].
With `CCO[C@@H](Cc1ccc(OCc2sc(-c3ccc(C4=Nc5ccccc5OC4)cc3)cc2C)cc1)C(=O)O` [Example 23, (S)-3-(4-((5-(4-(2H-benzo[b][1,4]oxazin-3-yl)phenyl)-3-methylthiophen-2-yl)methoxy)phenyl)-2-ethoxypropionic acid], the Emax in assay [1] was found to be 67%; in assay [2], 44%; in assay [3], 43%; in assay [4], 83%. The EC50 in assay [1] came out at 165 nM; in assay [2], 2010 nM; in assay [3], 105 nM; in assay [4] it was 65 nM.
Regarding `CCO[C@@H](Cc1ccc(OCc2sc(-c3ccc(C4=NCCCO4)cc3)cc2C)cc1)C(=O)O` [Example 19, (S)-3-(4-((5-(4-(5,6-dihydro-4H-1,3-oxazin-2-yl)phenyl)-3-methylthiophen-2-yl)methoxy)phenyl)-2-ethoxypropionic acid], the Emax in assay [1] was found to be 43%; in assay [2], 44%; in assay [3], 19%; in assay [4], 43%. Moreover, the EC50 is 281 nM in assay [1], 6570 nM in assay [2], 6830 nM in assay [3] and 45 nM in assay [4].
`CCO[C@@H](Cc1ccc(OCc2sc(-c3ccc(-c4nc(C)c(C)o4)cc3)cc2C)cc1)C(=O)O` [Example 34, (S)-3-(4-((5-(4-(4,5-dimethyloxazol-2-yl)phenyl)-3-methylthiophen-2-yl)methoxy)phenyl)-2-ethoxypropionic acid]: the Emax in assay [1] was determined as 81%; in assay [2], 31%; in assay [3] it was 31%; in assay [4], 75%. The EC50 in assay [1] is 176 nM; in assay [2], 476 nM; in assay [3] it was 3440 nM; in assay [4] it was 18 nM.
Regarding `CCO[C@@H](Cc1ccc(OCc2sc(-c3ccc(-c4noc(C)n4)cc3)cc2C)cc1)C(=O)O` [Example 25, (S)-2-ethoxy-3-(4-((3-methyl-5-(4-(5-methyl-1,2,4-oxadiazol-3-yl)phenyl)thiophen-2-yl)methoxy)phenyl)propionic acid], the Emax stood at 48% in assay [1], 63% in assay [2], 35% in assay [3] and 48% in assay [4]. Also, the EC50 in assay [1] is 295 nM; in assay [2], 5240 nM; in assay [3], 443 nM; in assay [4], 95 nM.

Source of the values: patent publication US20100063041A1, “NOVEL PHENYLPROPIONIC ACID DERIVATIVES AS PEROXISOME PROLIFERATOR-ACTIVATED GAMMA RECEPTOR MODULATORS, METHOD OF THE SAME, AND PHARMACEUTICAL COMPOSITION COMPRISING THE SAME” (priority 2007, published 2010).
